Results on three compounds are retold here after patent publication US20030061759A1, “Method for expelling harmful insects by volatilization of a chemical” (FUMAKILLA LIMITED, priority 2000, published 2003).

Where two headings read alike, the source gives them in different places.

In data set [1] the test system is female adult stegomyia mosquitoes (Aedes albopictus). As to the kind of experiment: Comparative debugging efficaciousness tests: bloodsucking prevention on rats, liquid type electric mosquito repellent utensil. The class given is in vivo. Particulars: for efficacy of preventing mosquitoes from bloodsucking rats compared with transfluthrin: comparison in words; for Potency Ratio (Etoc 100), of IC50 Value / Potency Ratio (Etoc 100), of IC90 Value: relative to d,d-T80-prallethrin (Etoc) = 100. The method, then: First, debugging efficaciousness tests were performed. For the criterion of judgment to compare degrees of efficaciousness, the effect of bloodsucking by mosquitoes of rats was adopted. Based on this, the following efficaciousness tests were carried out.
Comparative Debugging Efficaciousness Tests
Sample chemicals that were used were as follows: d,d-T80-prallethrin, transfluthrin, d1,d-T80-allethrin, d-T80-furamethrin, terallethrin and empenthrin; and pyrethroid technical products (sample chemicals) A, B, C, D, E, F, G and H.
Sample insects that were used were as follows: female adult stegomyia mosquitoes (Aedes albopictus) of Fumakilla (spelled phonetically) series 6th to 9th after emergence.
Sample chemical volatilizing form: A liquid type electric mosquito repellent utensil, a liquid agent (referred to below as “sample liquid”), obtained by diluting each of the sample chemicals with a solvent in a varying concentration, was allowed to volatilize.
Method used for tests: A test was conducted in two 8 straw mat (13.2 m^2) rooms, one as a treatment zone and the other as a non-treatment zone, both in a no-wind state and at a constant room temperature of 32° C.
In the treatment zone, three cages each with a rat confined therein were placed equidistantly spaced apart (about 20 cm) in the center of the test room. The mosquito repellent utensil placed on the floor surface of the center of the test room was preliminarily electrically energized for operation, and to thermally volatilize each of the sample liquids and fumigate the room therewith for a period of 30 minutes, and then about 100 (one hundred) of sample mosquitoes were released into the test room. After two hours following the release of the mosquitoes, all these sample mosquitoes were knocked-down by using a mosquito repellent mat, and the number of the mosquitoes which had bloodsucking was counted to find the proportion of bloodsucking.
In the non-treatment zone, also, after the 2 hours of bloodsucking, the proportion of bloodsucking was found.
A rate of bloodsucking prevention was derived from the proportions of bloodsucking in the treatment and non-treatment rooms as expressed by the following equation:
Rate of bloodsucking prevention =[(Total bloodsucking proportion in the non-treatment zone−Total bloodsucking proportion in the treatment zone)÷Total bloodsucking proportion in the non-treatment zone]×100
Also, on the basis of these amounts of volatilization and rates of bloodsucking prevention, an amount of volatilization at a 50% rate of bloodsucking prevention (IC50 value) and an amount of volatilization at a 90% rate of bloodsucking prevention (IC90 value) are found and shown in Table 1 below.

The nature of data set [2]: Comparative vapor pressure tests by gas chromatography. The class given is physicochemical. How it is done: 2. Comparative Vapor Pressure Tests
Next, by using gas chromatography, the various chemicals including sample chemicals A, B and C screened out by the foregoing comparative debugging efficaciousness tests were compared with d,d-T80-prallethrin (Etoc) as regards to their vapor pressures.
The gas chromatography test included as its temperature conditions an initial temperature of 60° C., and a temperature rise of 5° C. per minute up to a maximum temperature of 250° C., which was held for a period of 5 minutes, whereupon the process ended.
The filler used was made up of methyl silicon polymer, which is non-polar.
It should also be noted that as an internal standard substance use was made of sebacic acid-n-butyl and which was added to confirm that there was no deviation in retention time from one test to another.
Retention times for the various chemicals are listed in Table 2 in the order of shorter to longer.

Data set [3] has as its system female adult common house mosquitoes (Culex pipiens pallens). Nature of the data set: Example 1: spontaneous volatilization efficaciousness test in 33 m^3 room (knockdown, KT50). The data set is classed as in vivo. The settings on record: for potency and retention of potency compared with transfluthrin: comparison in words. The text has this:
Using sample chemicals A, B and C screened out by the preliminary tests, the efficaciousness of each of them when allowed to volatilize spontaneously was compared with that of transfluthrin when allowed to volatilize spontaneously.
Sample Preparations (Chemicals and Their Carriers According to the Present Invention):
A non-woven polypropylene fabric (made by Idemitsu Petroleum Chemicals Co., Ltd., product name RW2100, density 100 grams/m^2) of 50 cm×40 cm was coated with a hexane solution of 100 milliliter containing 1% (W/V) sample chemicals A, B, C and left to dry for 24 hours (effective amount of chemical: 1000 milligrams).
Comparative Preparation (Chemical and its Carrier):
A non-woven polypropylene fabric (made by Idemitsu Petroleum Chemicals Co., Ltd., product name RW2100, density 100 grams/m^2) of 50 cm×40 cm was coated with a hexane solution of 100 milliliter containing 1% (W/V) of transfluthrin and left to dry for 24 hours (effective amount of chemical: 1000 milligrams).
Testing Method: Efficaciousness Tests in an 8 Straw Mat room with a volume of 33 m^3
In the center of the test room with a volume of 33 m^3 (3.65 m×3.65 m×2.5 m high), each chemical carrier as prepared as above was placed as hung on a hook suspended in the center of the room to let the corresponding chemical volatilize spontaneously for a period of 3 hours. Thereafter, a triangular net casing (20 cm×20 cm×16.4 cm high) of 16 mesh nylon net containing 10 (ten) female adult common house mosquitoes (Culex pipiens pallens) was placed as hung in an area at each of the four corners (spaced from the wall surfaces at a distance of 90 cm) at a height of 150 cm from the room floor and was exposed to the chemical atmosphere.
A test was also conducted likewise for the comparative carrier.
After the tests ended, the samples chemicals were let to volatilize spontaneously in the room having a constant temperature of 30° C. The same test was repeated at given intervals and efficaciousness was then examined each time.

Where [4] appears, read: 13.2 m^2 room, 32° C., 30 min pre-fumigation, 2 hours after release, rats.
Where [5] appears, read: 60° C. initial, 5° C. per minute up to 250° C., non-polar methyl silicon polymer filler.

On to `C#CC(OC(=O)C1C(C=C(Cl)Cl)C1(C)C)C(F)=CCC` (centres unmarked) [Sample Chemical B, 1-ethnyl-2-fluoro-2-pentenyl 3-(2,2-dichlorovinyl)-2,2-dimethylcyclopropanecarboxylate], for which, in data set [1] (setting [4]), the “IC50 Value (amount of volatilization at a 50% rate of bloodsucking prevention)” value was 0.0047 mg/h. The “IC90 Value (amount of volatilization at a 90% rate of bloodsucking prevention)” value in data set [1] (setting [4]) was determined as 0.0083 mg/h. Further, in data set [1], the “efficacy of preventing mosquitoes from bloodsucking rats compared with transfluthrin” value is on record as “more efficacious than transfluthrin”. Further, the “Potency Ratio (Etoc 100), of IC50 Value” in data set [1] was found to be 172.3. Also, the “Potency Ratio (Etoc 100), of IC90 Value” in data set [1] worked out at 469.9. The “Retention Time (gas chromatography, as comparison of vapor pressure)” value (“Retention Time” below) in data set [2] was determined as 26.4 min. The “vapor pressure compared with transfluthrin and d,d-T80-prallethrin” value in data set [2] is given as “lower than transfluthrin, but higher than d,d-T80-prallethrin”. The “potency and retention of potency compared with transfluthrin” value in data set [3] was “higher in potency and also longer in retention time than transfluthrin”. In addition, the KT50 in data set [3] (elapsed time 0 hr) is 8.64 min; in data set [3] (elapsed time 168 hr), 7.53 min; in data set [3] (elapsed time 336 hr), 7.77 min; in data set [3] (elapsed time 504 hr), 7.48 min; in data set [3] (elapsed time 672 hr), 6.45 min; in data set [3] (elapsed time 864 hr) it was 7.90 min. Moreover, the KT50 turned out to be 8.00 min in data set [3] (elapsed time 1056 hr); 8.00 min in data set [3] (elapsed time 1200 hr); 8.40 min in data set [3] (elapsed time 1344 hr); 8.60 min in data set [3] (elapsed time 1536 hr); 9.60 min in data set [3] (elapsed time 1680 hr); 10.40 min in data set [3] (elapsed time 1848 hr). In addition, the KT50 in data set [3] (elapsed time 2016 hr) was found to be 9.87 min; in data set [3] (elapsed time 2208 hr), 11.70 min; in data set [3] (elapsed time 2352 hr) it was 10.80 min; in data set [3] (elapsed time 2520 hr) it was 12.00 min; in data set [3] (elapsed time 2688 hr) it was 12.70 min; in data set [3] (elapsed time 2856 hr), 13.50 min. Also, the KT50 is given as 14.90 min in data set [3] (elapsed time 3024 hr); 18.60 min in data set [3] (elapsed time 3192 hr); 20.70 min in data set [3] (elapsed time 3360 hr); 22.90 min in data set [3] (elapsed time 3528 hr); 26.80 min in data set [3] (elapsed time 3696 hr); 28.00 min in data set [3] (elapsed time 3864 hr). Also, the figures for the KT50 in data set [3] (elapsed time 4032 hr) and in data set [3] (elapsed time 4200 hr) were 25.60 min and 32.70 min, respectively.

As to `Cc1c(F)c(F)c(COC(=O)C2C(C=C(F)Cl)C2(C)C)c(F)c1F` (centres unmarked) [Sample Chemical C, 2,3,5,6-tetrafluoro-4-methylbenzyl 3-(2-chloro-2-fluorovinyl)-2,2-dimethylcyclopropanecarboxylate], the “efficacy of preventing mosquitoes from bloodsucking rats compared with transfluthrin” value in data set [1] is recorded as “more efficacious than transfluthrin”. Further, in data set [1], the “Potency Ratio (Etoc 100), of IC50 Value” was found to be 130.6. Besides, the “Potency Ratio (Etoc 100), of IC90 Value” in data set [1] was 348.2. Also, the “Retention Time” value in data set [2] (setting [5]) was determined as 24.5 min. Moreover, the “vapor pressure compared with transfluthrin and d,d-T80-prallethrin” value in data set [2] (from GC retention times) is listed as “lower than transfluthrin, but higher than d,d-T80-prallethrin”. For the same compound, the “potency and retention of potency compared with transfluthrin” value in data set [3] is “higher in potency and also longer in retention time than transfluthrin”. Moreover, the KT50 in data set [3] (elapsed time 0 hr) is listed as 5.53 min; in data set [3] (elapsed time 168 hr) it was 7.53 min; in data set [3] (elapsed time 336 hr), 7.55 min; in data set [3] (elapsed time 504 hr), 6.95 min; in data set [3] (elapsed time 672 hr) it was 7.98 min; in data set [3] (elapsed time 864 hr), 12.60 min. Moreover, the KT50 in data set [3] (elapsed time 1056 hr) is 10.70 min; in data set [3] (elapsed time 1200 hr), 11.50 min; in data set [3] (elapsed time 1344 hr), 12.60 min; in data set [3] (elapsed time 1536 hr) it was 15.90 min; in data set [3] (elapsed time 1680 hr), 20.70 min; in data set [3] (elapsed time 1848 hr), 25.90 min. For the same compound, the KT50 in data set [3] (elapsed time 2016 hr) is on record as 27.80 min; in data set [3] (elapsed time 2208 hr) it was 30.60 min.

On to `CC1(C)[C@H](C=C(Cl)Cl)[C@H]1C(=O)OCc1c(F)c(F)cc(F)c1F` [Transfluthrin, reference compound], for which the “Potency Ratio (Etoc 100), of IC50 Value” in data set [1] was found to be 19.0. In data set [1], the “Potency Ratio (Etoc 100), of IC90 Value” is given as 29.2. In addition, the “Retention Time” value in data set [2] (setting [5]) came out at 23.6 min. Moreover, the KT50 in data set [3] (elapsed time 0 hr) is 11.10 min; in data set [3] (elapsed time 168 hr), 8.73 min; in data set [3] (elapsed time 336 hr), 9.17 min; in data set [3] (elapsed time 504 hr), 13.40 min; in data set [3] (elapsed time 672 hr) it was 12.10 min; in data set [3] (elapsed time 864 hr), 17.20 min. Besides, the KT50 in data set [3] (elapsed time 1056 hr) amounted to 15.60 min; in data set [3] (elapsed time 1200 hr), 20.40 min; in data set [3] (elapsed time 1344 hr) it was 18.80 min; in data set [3] (elapsed time 1536 hr), 28.10 min; in data set [3] (elapsed time 1680 hr), 30.40 min.
